This note sets out measurements from PubChem BioAssay (NCI).

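Cells were grown in 96-well plates and exposed to each compound for 48 hours at five concentrations; endpoints were interpolated linearly between bracketing concentrations, or set to the highest concentration if not reached. GI50 = concentration required for 50% inhibition of growth. The concentration for full growth arrest is given as TGI.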

Test systems include SF-268 CNS; HL-60(TB) leukemia; DMS 114 small cell lung; HOP-62 NSCLC; KM12 colon; SF-295 CNS; NCI-H226 lung; HT29 colon; KM20L2 colon; MDA-MB-231 breast.
What all share (assay): NCI tumour cell line growth inhibition, 48 h

In the case of `CC(C)(C)c1ccc2c(c1)S(=O)(=O)Nc1ccc(Cl)cc1NS(=O)(=O)c1cc(C(C)(C)C)ccc1OCCOCCOCCO2`, the TGI in the experiment on SF-268 CNS, with HL-60(TB) leukemia, in the experiment on DMS 114 small cell lung, in the experiment on HOP-62 NSCLC, with KM12 colon and in the experiment with SF-295 CNS was greater than 100 µM each time. Besides, the TGI in the experiment on NCI-H226 lung and in the experiment with HT29 colon was greater than 100 µM in each case.

Take `Cc1ccc(C)c(N2C/C(=N\NC(=O)CC#N)C(c3nc4ccccc4s3)C(=O)C2=O)c1` (stereo not given): the TGI in the experiment with SF-268 CNS, in the experiment with HL-60(TB) leukemia, in the experiment with DMS 114 small cell lung, in the experiment on HOP-62 NSCLC, in the experiment on KM20L2 colon and in the experiment with KM12 colon was greater than 100 µM throughout. Besides, the TGI in the experiment on SF-295 CNS, in the experiment with NCI-H226 lung and in the experiment with HT29 colon was greater than 100 µM each time.

For `CCN1c2ccccc2-c2c3c1cc(C)cc3c1ccccc1[n+]2CC`, the TGI with SF-268 CNS is 2.04 µM; with DMS 114 small cell lung, 5.84 µM; with HOP-62 NSCLC it was 5.15 µM; with KM12 colon it was 1.41 µM; in the experiment on SF-295 CNS, 3.21 µM; in the experiment with NCI-H226 lung it was 3.69 µM. In the experiment with HT29 colon, the TGI was found to be 3.92 µM.

For `COc1cc(/C=C2\[C@H]3c4c(c(OC)c(C)c(OC)c4OC)CC(C(=O)N2Cc2ccccc2)N3C)c(OC)c(C)c1OC`, the TGI with SF-268 CNS is 61.3 µM; with HL-60(TB) leukemia, 36 µM; in the experiment with HOP-62 NSCLC, 35.1 µM; in the experiment on KM20L2 colon it was 37.2 µM; with KM12 colon it was greater than 100 µM; with SF-295 CNS it was 41.5 µM. In addition, the TGI in the experiment on NCI-H226 lung is 24 µM; in the experiment with HT29 colon it was 41.1 µM.

Consider `CC(C(=O)c1ccc(Cl)cc1)/C(=N/NC(=O)NN)C(=O)Nc1cccc(C(F)(F)F)c1` (stereo not given), for which the TGI in the experiment with SF-268 CNS, with HL-60(TB) leukemia, in the experiment on DMS 114 small cell lung, in the experiment on KM20L2 colon, in the experiment with SF-295 CNS and in the experiment with NCI-H226 lung was greater than 100 µM in each case. Moreover, in the experiment on HT29 colon, the TGI is greater than 100 µM.

Consider `CCOC(=O)NC(=O)c1cn(C2CCCCC2)c(=O)[nH]c1=O`, for which the TGI in the experiment with SF-268 CNS, with HL-60(TB) leukemia, in the experiment on HOP-62 NSCLC, with KM20L2 colon, with KM12 colon and in the experiment on SF-295 CNS was greater than 100 µM in each case. Besides, the TGI with NCI-H226 lung and in the experiment with HT29 colon was greater than 100 µM each time.

Take `Cc1ccccc1C1=[N+]([O-])c2ccc(Cl)cc2C1=O`: the TGI in the experiment with SF-268 CNS turned out to be 33.1 µM; in the experiment with HL-60(TB) leukemia, 6.22 µM; in the experiment on HOP-62 NSCLC, 42.6 µM; in the experiment with KM20L2 colon, 16.9 µM; in the experiment with KM12 colon, 27.1 µM; in the experiment on SF-295 CNS it was 29.1 µM. In addition, the TGI is 30.6 µM with NCI-H226 lung and 20.3 µM in the experiment with HT29 colon.

`O=[N+]([O-])c1cccc(C2=NOC(C3CCCCC3)C2)c1` (stereo not given): the TGI with SF-268 CNS, with HL-60(TB) leukemia, in the experiment with DMS 114 small cell lung, in the experiment with HOP-62 NSCLC, with KM12 colon and in the experiment with SF-295 CNS was greater than 100 µM each time. For the same molecule, the TGI with NCI-H226 lung and in the experiment on HT29 colon was greater than 100 µM throughout.

Regarding `NC(=O)C(=O)CC(=O)c1ccccc1NC1=CC(=O)C(=O)c2ccccc21`, the TGI with SF-268 CNS is greater than 85.7 µM; in the experiment with HL-60(TB) leukemia, greater than 76.6 µM; in the experiment on DMS 114 small cell lung, 68.2 µM; in the experiment with HOP-62 NSCLC, greater than 100 µM; in the experiment with KM20L2 colon, greater than 100 µM; in the experiment on KM12 colon, greater than 100 µM. Further, the TGI with NCI-H226 lung and in the experiment with HT29 colon was greater than 100 µM throughout.

As to `Nc1c(-c2ccccc2-c2c(N)[n+]([O-])c3ccccc3[n+]2[O-])[n+]([O-])c2ccccc2[n+]1[O-]`, the TGI in the experiment with SF-268 CNS was greater than 100 µM; in the experiment with HL-60(TB) leukemia, greater than 31.3 µM; in the experiment on DMS 114 small cell lung it was 27.2 µM; in the experiment with KM20L2 colon it was greater than 100 µM; in the experiment with KM12 colon, 50.2 µM; with SF-295 CNS it was greater than 100 µM. Further, the TGI in the experiment on NCI-H226 lung and with HT29 colon was greater than 100 µM each time.

Regarding `CCc1ccc2c(c1)C(=O)c1c-2n(CCCN=[N+]=[N-])c(=O)c2cc([N+](=O)[O-])ccc12`, the GI50 in the experiment on SF-268 CNS, with HL-60(TB) leukemia, with HOP-62 NSCLC, in the experiment on KM12 colon, with SF-295 CNS and in the experiment on NCI-H226 lung was greater than 50 µM each time. Further, the GI50 in the experiment with HT29 colon and in the experiment with MDA-MB-231 breast was greater than 50 µM each time. The TGI in the experiment on SF-268 CNS, with HL-60(TB) leukemia, in the experiment on HOP-62 NSCLC, with KM12 colon, with SF-295 CNS and in the experiment on NCI-H226 lung was greater than 50 µM throughout. Moreover, the TGI in the experiment with HT29 colon and with MDA-MB-231 breast was greater than 50 µM each time.

For the molecule `O=C(/C(=C\c1c(-c2ccccc2)[nH]c2ccccc12)S(=O)(=O)c1ccccc1)c1ccccc1`, the GI50 in the experiment with SF-268 CNS is greater than 100 µM; in the experiment with HL-60(TB) leukemia, 4.98 µM; in the experiment on HOP-62 NSCLC, greater than 100 µM; in the experiment with KM12 colon, 5.06 µM; in the experiment with SF-295 CNS, 3.47 µM; in the experiment with NCI-H226 lung, greater than 100 µM. The GI50 in the experiment on HT29 colon and in the experiment with MDA-MB-231 breast was greater than 100 µM throughout. The TGI in the experiment on SF-268 CNS, with HL-60(TB) leukemia, in the experiment on HOP-62 NSCLC, with KM12 colon, in the experiment with SF-295 CNS and in the experiment on NCI-H226 lung was greater than 100 µM each time. Further, the TGI in the experiment with HT29 colon and with MDA-MB-231 breast was greater than 100 µM in each case.

With `O=C(N/C(=C\c1ccc([N+](=O)[O-])cc1)c1nc2ccccc2[nH]1)c1ccccc1`, the TGI in the experiment on SF-268 CNS, with HL-60(TB) leukemia, in the experiment on DMS 114 small cell lung, with HOP-62 NSCLC, with KM20L2 colon and with KM12 colon was greater than 100 µM each time. The TGI with SF-295 CNS and in the experiment on HT29 colon was greater than 100 µM in each case.

As to `COc1cc2c(Nc3cc(Cl)c(OC)c(Cl)c3)c(C#N)cnc2cc1OCCCN1CCN(C)CC1`, the GI50 in the experiment on SF-268 CNS was 1.9 µM; with HL-60(TB) leukemia, 1.78 µM; in the experiment on HOP-62 NSCLC, 3.39 µM; in the experiment on KM12 colon it was 2.19 µM; with SF-295 CNS, 2.49 µM; in the experiment on NCI-H226 lung, 3.39 µM. The values for the GI50 in the experiment with HT29 colon and in the experiment on MDA-MB-231 breast were 0.927 µM and 2.6 µM, respectively. In addition, the TGI with SF-268 CNS stood at 6.92 µM; in the experiment on HL-60(TB) leukemia, 4.03 µM; in the experiment on HOP-62 NSCLC, 12.1 µM; in the experiment with KM12 colon, 10.1 µM; in the experiment with SF-295 CNS it was 7.45 µM; with NCI-H226 lung, 18.2 µM. Moreover, the results for the TGI in the experiment on HT29 colon and with MDA-MB-231 breast were 3.25 µM and 5.2 µM, respectively.
